Experiments:
[1] = tested on: chorionic allantoic membrane (CAM); test: CAM assay of deoxy sugar-loaded biomaterials (in ovo, implanted day 8, scored day 14); assay type: in vivo, chicken (Gallus domesticus)
Experimental: Fertilized chicken (Gallus domesticus) eggs were purchased from Big Bird (Raiwind road, Lahore, Pakistan) and incubated at 37° C. from day 2 of fertilization until day 8 in a humidified egg incubator (HHD, 435, China). At day 8, a square window (1 cm^2) was cut into the shell and removed, and a 2 cm^2 piece of the electrospun scaffold or hydrogels (16% PCL electrospun scaffold/CS/PVA hydrogel/CS/collagen hydrogels) placed onto the CAM. Each egg was implanted with one scaffold or hydrogel only.
The shell window was closed with parafilm (Bemis Flexible Packaging, USA) and sealed with adhesive tape. After implantation, eggs were placed again at 37° C. in a 40% humidified incubator until day 14. At day 14, biomaterials were retrieved and the eggs were sacrificed. Angiogenesis was quantified by taking light microscope pictures just before scaffold retrieval and then blindly scored by four assessors using histological images of the retrieved materials. The number of implanted and survived eggs is given in the caption of respective CAM assay figures.
D and L isomers of three-deoxysugars (ribose, fucose and rhamnose) were loaded onto the porous freeze gelated triethyl orthoformate (4%) covalently cross-linked chitosan/collagen (1:1) hydrogels. The hydrogels were soaked in an aqueous solution of sugars (1 mg/ml) and were further lyophilized (freeze dried) to produce porous membranes. As for the electrospun scaffold, the hydrogels were grafted into the fertilized eggs at day 8 and after day 14 the eggs were sacrificed and the effect of sugars on angiogenesis was investigated.

CAM = test: Ex-ovo CAM assay, direct application of substances; assay type: in vivo, chicken (Gallus domesticus)
Experimental: All CAM experiments were carried out according to the Home Office, UK guidelines. Fertilised chicken eggs (Gallus domesticus) were purchased from Henry Stewart & Co. (MedEggs, Norwich, UK). The eggs were carefully wiped with 20% industrial methylated spirit (IMS) solution using hand paper towels in order to remove dirt and feathers from the shell. The eggs were then incubated at 37.5° C. until embryonic development day (EDD) 3, lying horizontally in an humidified egg incubator (RCOM King SURO, P&T Poultry, Powys, Wales).
On EDD3, the upper surface of the eggs were marked with a felt pen. The eggs were held horizontally (with the marked surface on top) and cracked on the edge of a 1000 ml glass beaker and kept close to the bottom surface of petri dishes. The embryos were then transferred gently into sterile petri dishes and kept in a humidified incubator (Binder, Tuttlingen, Germany) at 38° C.
Plastic rings (˜6.5 mm in diameter) were used as a reservoir for substances and a marker for the implantation area, were placed on the CAM, and the substances were applied as 20 μl volume onto the CAM twice a day to give a […] between EDD7 and EDD11. Images of the rings were acquired using a digital microscope at EDD11, and then 20% lens culinaris agglutinin (LCA) (Vector Laboratories, Peterborough, UK) was injected into the circulation for labelling the intravascular endothelial cells using 30G needles under a dissection microscope (Wild Heerbrugg, Heerbrugg, Switzerland). CAMs were then removed and fixed in 3.7% formaldehyde solution. Embryos were sacrificed at the end of EDD11. Fixed CAM samples were then imaged under a confocal microscope (Zeiss LSM 510 Meta, Jena, Germany) for investigating the effect of substances on the microvascular structure of the CAMs.
Blood vessels were quantified by segmentation of the images [C. Roma-Rodrigues, A. Heuer-Jungemann, A. R. Fernandes, A. G. Kanaras, P. V. Baptista, Peptide-coated gold nanoparticles for modulation of angiogenesis in vivo, IntJ Nanomedicine. 11 (2016) 2633-2639. doi: 10.2147/IJN.S108661] so as to include all discernible vessels and then counting the branch points and calculating average vessel lengths [D. Ribatti, B. Nico, A. Vacca, M. Presta, The gelatin sponge-chorioallantoic membrane assay, Nat Protoc. 1 (2006) 85-91. doi: 10.1038/nprot.2006.13, P. Brooks, A. P. Montgomery, D. Cheresh, Use of the 10-Day-Old Chick Embryo Model for Studying Angiogenesis, Integrin Protoc. 129 (1999) 257-269. doi: 10.1385/1-59259-249-X: 257] via multiple image processing steps. Firstly, the internal area of the ring was cropped, and the red, green and blue channels were split using Adobe Photoshop CS6 (ADOBE Systems Inc., San Jose, California, USA). The green channel was then imported to ImageJ (Wayne Rasband, National Institutes of Health, USA) for further analysis including unsharp mask filtering, enhancing the local contrast, noise removal and segmentation. Finally, the number of branch points was quantified using quantification software (AngioTool, National Cancer Institute, USA) (FIG. 14A) and average blood vessel lengths were calculated by using binary image histograms with known pixel/mm ratios in ImageJ (Wayne Rasband, National Institutes of Health, USA).
The percentage vascular area (VA %) of the microvasculature of CAMs were quantified using confocal images of rhodamine labelled lectin injected CAM samples as shown in FIG. 14B. To do this, images were imported to ImageJ (Wayne Rasband, National Institutes of Health, USA) and converted to binary images after filtering and smoothing processes prior to quantification. VA % was calculated using the histogram list of black and white areas in the image.
All chemicals were purchased from Sigma Aldrich unless indicated otherwise. […]

[2] = E2 and 2dDR release from PHBV scaffolds in PBS; assay type: physicochemical; settings: by 7 days
Experimental: 10% (w/w) PHBV solution loaded was prepared prior to electrospinning. 1 g of PHBV granules (Goodfellow, London, UK) were dissolved in 1 g of methanol (Fisher Scientific, Massachusetts, USA) and 8 g of DCM (Fisher Scientific, Massachusetts, USA) in a fume hood. Four 10% PHBV solutions were prepared prior to addition of substances. Finally, 25 mg E2, 50 mg of E2, 250 mg of 2dDR and 500 mg of 2dDR were then added to each solution per 1 g of PHBV. The mixtures were magnetically stirred overnight.
Scaffolds were cut into pieces so to fit into an 6-well plate, weighed and submerged in 4 ml of PBS. The E2 and 2dDR concentrations released from each group (25 mg E2, 50 mg E2, 250 mg 2dDR, 500 mg 2dDR) were measured […] using a UV-VIS spectrophotometer (Thermo Fischer Evolution 220, Massachusetts, USA) at 238 nm for 2dDR and 220 nm for E2. Absorbance values were converted into concentrations using a standard curve of known concentrations of E2 and 2dDR.

release from the scaffolds, of the amount present in the polymer solution ([2]; 250 mg 2dDR per 1 g PHBV scaffold): 81.3%
release from the scaffolds, of the amount present in the polymer solution ([2]; 500 mg 2dDR per 1 g PHBV scaffold): 86.5%
Compound: O=CC[C@H](O)[C@H](O)CO [2-deoxy-D-ribose]
angiogenic response ([1]; loaded (1 mg/ml) in cross-linked chitosan/collagen hydrogels): strongly angiogenic
angiogenesis compared to the control material ([1]; loaded in chitosan/PVA triethyl orthoformate cross-linked hydrogels): promoted angiogenesis
angiogenic potential (new blood vessels) ([1]; loaded in electrospun PCL fibers): growth of extensive new blood vessels under the material
increase of number of branch points (CAM; 2dDR 20 μg/day): 1.3 times
increase of number of branch points (CAM; 2dDR 200 μg/day): 1.4 times
percentage vascular area (VA %) of microvasculature (CAM; 2dDR 200 μg/day, over 4 days, control 55.3%±3%): 71.7%±3%
angiogenic response (average vessel length) compared to control (CAM; 2dDR 1000 μg/day): no significant difference
increase of average vessel length (CAM; both 2dDR 20 μg/day and 200 μg/day): 1.2 times

— US20250099486A1, “WOUND HEALING MEDICAMENT” (The University of Sheffield, priority 2017, published 2025)
